Patent US11541055B2, “Inhibitors of human immunodeficiency virus replication” (ViiV Healthcare UK (No. 5) LIMITED, priority 2018, dated 2023)

What was measured:
[1] = system: recombinant NL4-3 virus (Renilla luciferase) in MT-2 cells; assay: HIV cell culture assay (antiviral activity, luciferase readout); assay type: cell-based; details: Renilla, NL43
How it was run: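 MT-2 cells were infected with recombinant NL4-3 virus carrying Renilla luciferase in place of part of nef. Cells were cultured 4–5 days with serially diluted compound, and luciferase was measured with a live-cell substrate. EC50 was calculated from the median effect equation.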

[2] = Compound cytotoxicity, XTT-based colorimetric assay; assay type: cell-based; details: human; uninfected MT2 cells, day 4, XTT
How it was run: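 Run under the antiviral-assay protocol but without virus. Viability was read on day 4 and CC50 values were derived from the readout.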

## Cc1cc(-c2ccc3c(=O)n(-c4ccc(Cl)c5c(NS(C)(=O)=O)nn(CC(F)(F)F)c45)c([C@H](Cc4cc(F)cc(F)c4)NC(=O)Cn4nc(C(F)F)c5c4C(F)(F)[C@@H]4C[C@H]54)nc3c2)nc(C)n1 (atropisomer, axis not shown) [Example 103, N-[(1S)-1-{3-[4-chloro-3-methanesulfonamido-1-(2,2,2-trifluoroethyl)-1H-indazol-7-yl]-7-(2,6-dimethylpyrimidin-4-yl)-4-oxo-3,4-dihydroquinazolin-2-yl}-2-(3,5-difluorophenyl)ethyl]-2-[(2S,4R)-9-(difluoromethyl)-5,5-difluoro-7,8-diazatricyclo[4.3.0.0^2,^4]nona-1(6),8-dien-7-yl]acetamide]
[1]
  EC50: 0.059 nM
[2]
  CC50 at 4 days: > 500 nM

## CN(c1ccccc1-c1ccc2c(=O)n(-c3ccc(Cl)c4c(NS(C)(=O)=O)nn(C)c34)c([C@H](Cc3cc(F)cc(F)c3)NC(=O)Cn3nc(C(F)F)c4c3C(F)(F)[C@@H]3C[C@H]43)nc2c1)S(C)(=O)=O (atropisomer, axis not shown; (P)) [Example 27, N—((S)-1-((3P)-3-(4-chloro-1-methyl-3-(methylsulfonamido)-1H-indazol-7-yl)-7-(2-(N-methylmethylsulfonamido)phenyl)-4-oxo-3,4-dihydroquinazolin-2-yl)-2-(3,5-difluorophenyl)ethyl)-2-((3bS,4aR)-3-(difluoromethyl)-5,5-difluoro-3b,4,4a,5-tetrahydro-1H-cyclopropa[3,4]cyclopenta[1,2-c]pyrazol-1-yl)acetamide]
[1]
  EC50: 0.49 nM
[2]
  CC50 at 4 days: > 500 nM

## CCOc1cc(-c2ccc3c(=O)n(-c4ccc(Cl)c5c(NS(C)(=O)=O)nn(C)c45)c([C@H](Cc4cc(F)cc(F)c4)NC(=O)Cn4nc(C(F)F)c5c4C(F)(F)[C@@H]4C[C@H]54)nc3c2)nc(C)n1 (atropisomer, axis not shown; (P)) [Example 69, N—((S)-1-((3P)-3-(4-chloro-1-methyl-3-(methylsulfonamido)-1H-indazol-7-yl)-7-(6-ethoxy-2-methylpyrimidin-4-yl)-4-oxo-3,4-dihydroquinazolin-2-yl)-2-(3,5-difluorophenyl)ethyl)-2-((3bS,4aR)-3-(difluoromethyl)-5,5-difluoro-3b,4,4a,5-tetrahydro-1H-cyclopropa[3,4]cyclopenta[1,2-c]pyrazol-1-yl)acetamide]
[1]
  EC50: 0.43 nM
[2]
  CC50 at 4 days: > 500 nM

## CCc1cc(-c2ccc3c(=O)n(-c4ccc(Cl)c5c(NS(C)(=O)=O)nn(C)c45)c([C@H](Cc4cc(F)cc(F)c4)NC(=O)Cn4nc(C(F)F)c5c4C(F)(F)[C@@H]4C[C@H]54)nc3c2)nc(CC)n1 (atropisomer, axis not shown; (P)) [Example 68, N—((S)-1-((3P)-3-(4-chloro-1-methyl-3-(methylsulfonamido)-1H-indazol-7-yl)-7-(2,6-diethylpyrimidin-4-yl)-4-oxo-3,4-dihydroquinazolin-2-yl)-2-(3,5-difluorophenyl)ethyl)-2-((3bS,4aR)-3-(difluoromethyl)-5,5-difluoro-3b,4,4a,5-tetrahydro-1H-cyclopropa[3,4]cyclopenta[1,2-c]pyrazol-1-yl)acetamide]
[1]
  EC50: 0.18 nM
[2]
  CC50 at 4 days: > 500 nM

## Cc1nccc(-c2ccc3c(=O)n(-c4ccc(Cl)c5c(NS(C)(=O)=O)nn(CC(F)(F)F)c45)c([C@H](Cc4cc(F)cc(F)c4)NC(=O)Cn4nc(C(F)F)c5c4C(F)(F)[C@@H]4C[C@H]54)nc3c2)n1 (atropisomer, axis not shown) [Example 100, N-[(1S)-1-{3-[4-chloro-3-methanesulfonamido-1-(2,2,2-trifluoroethyl)-1H-indazol-7-yl]-7-(2-methylpyrimidin-4-yl)-4-oxo-3,4-dihydroquinazolin-2-yl}-2-(3,5-difluorophenyl)ethyl]-2-[(2S,4R)-9-(difluoromethyl)-5,5-difluoro-7,8-diazatricyclo[4.3.0.0^2,^4]nona-1(6),8-dien-7-yl]acetamide]
[1]
  EC50: 0.042 nM
[2]
  CC50 at 4 days: > 500 nM

## CS(=O)(=O)Nc1nn(CC(F)(F)F)c2c(-n3c([C@H](Cc4cc(F)cc(F)c4)NC(=O)Cn4nc(C(F)F)c5c4C(F)(F)[C@@H]4C[C@H]54)nc4cc(-c5nccc(C(F)F)n5)ccc4c3=O)ccc(Cl)c12 (atropisomer, axis not shown) [Example 104, N-[(1S)-1-{3-[4-chloro-3-methanesulfonamido-1-(2,2,2-trifluoroethyl)-1H-indazol-7-yl]-7-[4-(difluoromethyl)pyrimidin-2-yl]-4-oxo-3,4-dihydroquinazolin-2-yl}-2-(3,5-difluorophenyl)ethyl]-2-[(2S,4R)-9-(difluoromethyl)-5,5-difluoro-7,8-diazatricyclo[4.3.0.0^2,^4]nona-1(6),8-dien-7-yl]acetamide]
[1]
  EC50: 0.063 nM
[2]
  CC50 at 4 days: > 500 nM

## Cn1nc(NS(C)(=O)=O)c2c(Cl)ccc(-n3c([C@H](Cc4cc(F)cc(F)c4)NC(=O)Cn4nc(C(F)F)c5c4C(F)(F)[C@@H]4C[C@H]54)nc4cc(-c5ccccc5C(F)F)ccc4c3=O)c21 (atropisomer, axis not shown; (P)) [Example 12, N—((S)-1-((3P)-3-(4-chloro-1-methyl-3-(methylsulfonamido)-1H-indazol-7-yl)-7-(2-(difluoromethyl)phenyl)-4-oxo-3,4-dihydroquinazolin-2-yl)-2-(3,5-difluorophenyl)ethyl)-2-((3bS,4aR)-3-(difluoromethyl)-5,5-difluoro-3b,4,4a,5-tetrahydro-1H-cyclopropa[3,4]cyclopenta[1,2-c]pyrazol-1-yl)acetamide]
[1]
  EC50: 0.37 nM
[2]
  CC50 at 4 days: > 500 nM

## Cc1ncncc1-c1ccc2c(=O)n(-c3ccc(Cl)c4c(NS(C)(=O)=O)nn(C)c34)c([C@H](Cc3cc(F)cc(F)c3)NC(=O)Cn3nc(C(F)F)c4c3C(F)(F)[C@@H]3C[C@H]43)nc2c1 (atropisomer, axis not shown; (P)) [Example 42, N—((S)-1-((3P)-3-(4-chloro-1-methyl-3-(methylsulfonamido)-1H-indazol-7-yl)-7-(4-methylpyrimidin-5-yl)-4-oxo-3,4-dihydroquinazolin-2-yl)-2-(3,5-difluorophenyl)ethyl)-2-((3bS,4aR)-3-(difluoromethyl)-5,5-difluoro-3b,4,4a,5-tetrahydro-1H-cyclopropa[3,4]cyclopenta[1,2-c]pyrazol-1-yl)acetamide]
[1]
  EC50: 0.074 nM
[2]
  CC50 at 4 days: > 500 nM

## COCc1nccc(-c2ccc3c(=O)n(-c4ccc(Cl)c5c(NS(C)(=O)=O)nn(C)c45)c([C@H](Cc4cc(F)cc(F)c4)NC(=O)Cn4nc(C(F)F)c5c4C(F)(F)[C@@H]4C[C@H]54)nc3c2)n1 (atropisomer, axis not shown; (P)) [Example 74, N—((S)-1-((3P)-3-(4-chloro-1-methyl-3-(methylsulfonamido)-1H-indazol-7-yl)-7-(2-(methoxymethyl)pyrimidin-4-yl)-4-oxo-3,4-dihydroquinazolin-2-yl)-2-(3,5-difluorophenyl)ethyl)-2-((3bS,4aR)-3-(difluoromethyl)-5,5-difluoro-3b,4,4a,5-tetrahydro-1H-cyclopropa[3,4]cyclopenta[1,2-c]pyrazol-1-yl)acetamide]
[1]
  EC50: 0.079 nM
[2]
  CC50 at 4 days: > 500 nM

## COc1ccc(-c2ccc3c(=O)n(-c4ccc(Cl)c5c(NS(C)(=O)=O)nn(C)c45)c([C@H](Cc4cc(F)cc(F)c4)NC(=O)Cn4nc(C(F)F)c5c4C(F)(F)[C@@H]4C[C@H]54)nc3c2)c(C)n1 (atropisomer, axis not shown; (P)) [Example 5, N—((S)-1-((3P)-3-(4-chloro-1-methyl-3-(methylsulfonamido)-1H-indazol-7-yl)-7-(6-methoxy-2-methylpyridin-3-yl)-4-oxo-3,4-dihydroquinazolin-2-yl)-2-(3,5-difluorophenyl)ethyl)-2-((3bS,4aR)-3-(difluoromethyl)-5,5-difluoro-3b,4,4a,5-tetrahydro-1H-cyclopropa[3,4]cyclopenta[1,2-c]pyrazol-1-yl)acetamide]
[1]
  EC50: 0.94 nM
[2]
  CC50 at 4 days: > 500 nM

## Cc1ccc(-n2c([C@H](Cc3cc(F)cc(F)c3)NC(=O)Cn3nc(C(F)F)c4c3C(F)(F)[C@@H]3C[C@H]43)nc3cc(-c4ccccc4N(C)S(C)(=O)=O)ccc3c2=O)c2c1c(NS(=O)(=O)C1CC1)nn2CC(F)F (atropisomer, axis not shown) [Example 145, N-[(1S)-1-{3-[3-cyclopropanesulfonamido-1-(2,2-difluoroethyl)-4-methyl-1H-indazol-7-yl]-7-[2-(N-methylmethanesulfonamido)phenyl]-4-oxo-3,4-dihydroquinazolin-2-yl}-2-(3,5-difluorophenyl)ethyl]-2-[(2S,4R)-9-(difluoromethyl)-5,5-difluoro-7,8-diazatricyclo[4.3.0.0^2,^4]nona-1(6),8-dien-7-yl]acetamide]
[1]
  EC50: 0.68 nM
[2]
  CC50 at 4 days: > 500 nM

## Cc1nnc(-c2ccc3c(=O)n(-c4ccc(Cl)c5c(NS(C)(=O)=O)nn(CC(F)F)c45)c([C@H](Cc4cc(F)cc(F)c4)NC(=O)Cn4nc(C(F)F)c5c4C(F)(F)[C@@H]4C[C@H]54)nc3c2)nc1C (atropisomer, axis not shown) [Example 133, N-[(1S)-1-{3-[4-chloro-1-(2,2-difluoroethyl)-3-methanesulfonamido-1H-indazol-7-yl]-7-(5,6-dimethyl-1,2,4-triazin-3-yl)-4-oxo-3,4-dihydroquinazolin-2-yl}-2-(3,5-difluorophenyl)ethyl]-2-[(2S,4R)-9-(difluoromethyl)-5,5-difluoro-7,8-diazatricyclo[4.3.0.0^2,^4]nona-1(6),8-dien-7-yl]acetamide]
[1]
  EC50: 0.04 nM
[2]
  CC50 at 4 days: > 500 nM
